The source of these data is the RepoRT retention time repository.

The nature of this series: Thermo Scientific Acclaim RSLC 120 C18, 100 × 2.1 mm, 2.2 µm, 30 °C, 0.2 to 0.48 mL/min, estimated dead time 1.1 min; A: 90% water + 10% methanol + 5 mM ammonium acetate; B: methanol + 5 mM ammonium acetate; gradient (min/%B) 0.1/1 3/39 14/99.9 16/99.9. The following applies: stereoisomer not certain.

For `CC(NC(=O)C(N)CC(=O)O)C(=O)NC1C(C)(C)SC1(C)C` (stereo not given), the LC retention time is 6.06 min.

Consider `CC1CCCCC1NC(=O)Nc1ccccc1` (stereo not given), for which the LC retention time was 9.15 min.

Turning to `CNC(=O)N(C)c1nc2ccccc2s1`, the LC retention time is 8.23 min.

Consider `CNC(=O)N(C)c1nnc(C(C)(C)C)s1`, for which the LC retention time was 7.21 min.

Take `CC12CCC3c4ccc(O)cc4CCC3C1CCC2=O` (stereo not given): the LC retention time is 10.8 min.

As to `O=S(=O)(O)NC1CCCCC1`, the LC retention time is 4.12 min.

On to `CNC(=C[N+](=O)[O-])NCCS(=O)Cc1ccc(CN(C)C)o1` (stereo not given), for which the LC retention time is 3.93 min.

With `CC12CCC3C(CCC4=CC(=O)CCC43C)C1CCC2=O` (stereo not given), the LC retention time is 13.1 min.

Turning to `O=c1[nH]c(=O)[nH]c(=O)[nH]1`, the LC retention time was 1.34 min.

Turning to `CC[N+]([O-])(CC)CC(=O)Nc1c(C)cccc1C`, the LC retention time is 6.56 min.

As to `CC12CCC3c4ccc(O)cc4CCC3C1CC(O)C2=O` (stereo not given), the LC retention time is 8.42 min.

Consider `O=C(Nc1ccccc1)Nc1cnns1`, for which the LC retention time was 7.12 min.

Consider `NCC1(CC(=O)O)CCCCC1`, for which the LC retention time is 4.08 min.

For the compound `CC(=O)NCCCS(=O)(=O)O`, the LC retention time is 1.46 min.

Turning to `CC1(C)SC2C(NC(=O)C(N)c3ccc(O)cc3)C(=O)N2C1C(=O)O` (stereo not given), the LC retention time is 3.68 min.

On to `CCCCCCCCCc1ccc(O)cc1`, for which the LC retention time was 12.9 min.

Turning to `CCCc1nc2c(C)cc(-c3nc4ccccc4n3C)cc2n1Cc1ccc(-c2ccccc2C(=O)O)cc1`, the LC retention time is 11.2 min.

Consider `COCCN(C(=O)C(=O)O)c1c(C)cccc1C`, for which the LC retention time was 6.07 min.

For the compound `CCCC(C)C1(CC)C(=O)NC(=S)NC1=O` (stereo not given), the LC retention time is 8.63 min.

`COc1cc(OC)nc(NC(=O)NS(=O)(=O)c2cc(NC=O)ccc2C(=O)N(C)C)n1`: the LC retention time was 5.62 min.

`CC(C)CC(CN)CC(=O)O` (stereo not given): the LC retention time was 4.04 min.

With `On1nnc2ccccc21`, the LC retention time is 3.69 min.

Take `CCCC(CCC)C(=O)O`: the LC retention time is 7.04 min.

For the compound `C=CC(=O)NC(C)(C)CS(=O)(=O)O`, the LC retention time was 2.5 min.

As to `CCC1OC(=O)C(C)C(OC2CC(C)(OC)C(O)C(C)O2)C(C)C(OC2OC(C)CC(N(C)C)C2O)C(C)(O)CC(C)C(=NOCOCCOC)C(C)C(O)C1(C)O` (stereo not given), the LC retention time was 11.5 min.

For the compound `CCCCCCCCCC(Oc1ccccc1)C(=O)O` (stereo not given), the LC retention time was 11.4 min.

`COC(=O)C(Cc1ccccc1)NC(=O)C(N)CC(=O)O` (stereo not given): the LC retention time is 4.98 min.

In the case of `CS(=O)(=O)c1ccc(C(=O)C2C(=O)CCCC2=O)c([N+](=O)[O-])c1`, the LC retention time is 2.13 min.

Turning to `COc1ccc(Oc2ccc(NC(=O)N(C)C)cc2)cc1`, the LC retention time was 8.39 min.

For `Cc1cccc(Nc2ccncc2S(=O)(=O)NC(=O)NC(C)C)c1`, the LC retention time is 8.29 min.

On to `CCc1ccc(CCOc2ccc(CC3SC(=O)NC3=O)cc2)nc1` (stereo not given), for which the LC retention time was 10.6 min.

As to `CNC(=C[N+](=O)[O-])NCCSCc1ccc(CN(C)C)o1`, the LC retention time was 4.67 min.

Consider `CCCCCCC(C)(C)c1ccc(C2CCCC(O)C2)c(O)c1` (stereo not given), for which the LC retention time is 13.2 min.

In the case of `COc1cc(S(=O)(=O)O)c(C)cc1N=Nc1c(O)ccc2cc(S(=O)(=O)O)ccc12`, the LC retention time is 2.88 min.

Turning to `COc1ccc(C(=O)c2ccccc2O)cc1`, the LC retention time is 12.2 min.

Take `CC(C)NCC(O)c1ccc(NS(C)(=O)=O)cc1` (stereo not given): the LC retention time is 3.91 min.

As for `CC(CCC(=O)O)C1CCC2C3C(O)CC4CC(O)CCC4(C)C3CCC12C` (stereo not given), the LC retention time is 11.1 min.

Regarding `CC[N+]1([O-])CCCC1CNC(=O)c1cc(S(=O)(=O)CC)c(N)cc1OC` (stereo not given), the LC retention time was 4.81 min.

`CC(C)c1ccc(NC(=O)N(C)C)cc1`: the LC retention time was 8.29 min.

In the case of `Cc1c(N(C)CS(=O)(=O)O)c(=O)n(-c2ccccc2)n1C`, the LC retention time was 4.89 min.

With `COC(=O)C(C)=COP(=S)(OC)OC`, the LC retention time was 5.12 min.

On to `COC(=O)NC(=S)Nc1ccccc1NC(=S)NC(=O)OC`, for which the LC retention time is 6.88 min.

For the compound `CCOC(=O)CSc1nc(C(C)(C)C)nn1C(=O)N(C)C`, the LC retention time was 6.37 min.

Consider `CC(C)C1CCC(C(=O)NC(Cc2ccccc2)C(=O)O)CC1` (stereo not given), for which the LC retention time is 11.4 min.

`CSc1nnc(C(C)(C)C)c(=O)n1N`: the LC retention time is 7.04 min.

For `COCC(C)N(C(=O)C(=O)O)c1c(C)csc1C` (stereo not given), the LC retention time was 6.97 min.

For the compound `C=C1CC23CC1(O)CCC2C12C=CC(O)C(C)(C(=O)O1)C2C3C(=O)O` (stereo not given), the LC retention time was 4.42 min.

With `NC(=O)N=C(N)N`, the LC retention time is 1.73 min.

As to `CC(C)N(C(=O)C(=O)O)c1ccccc1`, the LC retention time was 5.57 min.

For the compound `CN(C)CCC=C1c2ccccc2COc2ccc(CC(=O)O)cc21`, the LC retention time was 7.69 min.

Take `CCOP(=O)(NC(C)C)Oc1ccc(S(C)(=O)=O)c(C)c1` (stereo not given): the LC retention time is 7.17 min.

`CCOP(=S)(OCC)Oc1cnccn1`: the LC retention time is 8.03 min.

Turning to `CCCCCC(C)N` (stereo not given), the LC retention time was 4.41 min.

Turning to `Cc1cc(C)n(-c2nc3ccccc3[nH]2)n1`, the LC retention time is 8.22 min.

In the case of `CNC(=O)CSP(=S)(OC)OC`, the LC retention time was 5.25 min.

For the compound `CCNC1CN(CCCOC)S(=O)(=O)c2sc(S(N)(=O)=O)cc21` (stereo not given), the LC retention time was 5.74 min.

With `Nc1nc2ccccc2[nH]1`, the LC retention time is 5.11 min.

As for `O=c1[nH]cnc2[nH]ncc12`, the LC retention time is 3.04 min.

In the case of `COC(=O)c1ccccc1S(=O)(=O)NC(=O)Nc1nc(C)nc(OC)n1`, the LC retention time is 4.51 min.

In the case of `Cc1cnc(NC(=O)C2=C(O)c3ccccc3S(=O)(=O)N2C)s1`, the LC retention time was 6.41 min.

With `CCNC1CC(C)S(=O)(=O)c2sc(S(N)(=O)=O)cc21` (stereo not given), the LC retention time is 4.63 min.

As to `O=C(O)c1ccccc1`, the LC retention time is 2.88 min.

On to `CCc1cccc2c3c([nH]c12)C(CC)(CC(=O)O)OCC3` (stereo not given), for which the LC retention time is 10.5 min.

On to `O=C1CN=C(c2ccccc2)c2c(sc3c2CCCC3)N1`, for which the LC retention time is 9.91 min.

For `CC(C)(C)Nc1nc(N)[nH]c(=O)n1`, the LC retention time is 5.42 min.

Consider `NC(=O)N1c2ccccc2C2OC2c2ccccc21` (stereo not given), for which the LC retention time is 8.47 min.

For `O=C1NS(=O)(=O)c2ccccc21`, the LC retention time is 3.09 min.

Consider `C=C(C)C1CCC(C)=CC1c1c(O)cc(CCCCC)cc1O` (stereo not given), for which the LC retention time is 13.7 min.

On to `CCC1(CCC(C)C)C(=O)NC(=O)NC1=O`, for which the LC retention time is 7.9 min.

Turning to `CC12C=CC3=C4CCC(=O)C=C4CCC3C1CCC2O` (stereo not given), the LC retention time was 9.17 min.

On to `CC(=O)Nc1ccc(S(=O)(=O)Nc2nc(C)cc(C)n2)cc1`, for which the LC retention time was 5.06 min.

Regarding `CC(C)(C)c1cc([N+](=O)[O-])cc([N+](=O)[O-])c1O`, the LC retention time was 8.13 min.

With `CC12CCC(O)CC1CCC1C2CCC2(C)C1CCC2(C)O` (stereo not given), the LC retention time is 14 min.

Turning to `CC1=NNC(=O)N(N=Cc2cccnc2)C1`, the LC retention time is 4.13 min.

Take `CC(C)CN(CC(O)C(Cc1ccccc1)NC(=O)OC1COC2OCCC12)S(=O)(=O)c1ccc(N)cc1` (stereo not given): the LC retention time was 9.37 min.

As to `CCOS(=O)(=O)O`, the LC retention time was 1.52 min.

Take `CC(C)Cc1ccc(C(C)C(=O)O)cc1` (stereo not given): the LC retention time was 9.72 min.

As for `Cc1cccc(Nc2ccccc2C(=O)O)c1C`, the LC retention time was 9.29 min.

Consider `CC(C)C(NC(=O)C(CC(=O)O)NC(=O)C(CCCCN)NC(=O)C(N)CCCN=C(N)N)C(=O)NC(Cc1ccc(O)cc1)C(=O)O` (stereo not given), for which the LC retention time is 3.16 min.

In the case of `CC(N)C12CC3CC(CC(C3)C1)C2` (stereo not given), the LC retention time is 3.19 min.

Consider `Cc1nnc(-c2ccccc2)c(=O)[nH]1`, for which the LC retention time is 5.72 min.

With `NC(=O)c1ncn(C2OC(CO)C(O)C2O)n1` (stereo not given), the LC retention time was 1.46 min.

Turning to `Nc1ncn[nH]1`, the LC retention time was 1.67 min.

For `CCC1(O)C(=O)OCc2c1cc1n(c2=O)Cc2cc3c(CN(C)C)c(O)ccc3nc2-1` (stereo not given), the LC retention time was 5.61 min.

Consider `CCC1(CC)C(=O)NC(=O)NC1=O`, for which the LC retention time was 4.8 min.

As for `CCOc1cc(CC(=O)NC(CC(C)C)c2ccccc2N2CCCCC2)ccc1C(=O)O` (stereo not given), the LC retention time was 12.8 min.

As for `CCC(C)c1cc([N+](=O)[O-])cc([N+](=O)[O-])c1O` (stereo not given), the LC retention time is 7.92 min.

Take `COc1cc(C=CC(=O)CC(=O)C=Cc2ccc(O)c(OC)c2)ccc1O`: the LC retention time is 10 min.

For `CC(Cn1cnc2c(N)ncnc21)OCP(=O)(O)O` (stereo not given), the LC retention time was 3.18 min.

As to `COC(=O)Nc1cccc(OC(=O)Nc2cccc(C)c2)c1`, the LC retention time is 8.72 min.

On to `Cc1c(NC=O)c(=O)n(-c2ccccc2)n1C`, for which the LC retention time is 4.51 min.

Consider `CC1(C)SC2C(NC(=O)C(N)c3ccccc3)C(=O)N2C1C(=O)O` (stereo not given), for which the LC retention time is 4.46 min.

Take `Cc1onc(-c2ccccc2)c1-c1ccc(S(N)(=O)=O)cc1`: the LC retention time is 7.46 min.

Turning to `COCC(C)N(C(=O)CS(=O)(=O)O)c1c(C)csc1C` (stereo not given), the LC retention time is 6.97 min.

For `Cc1cc(C)cc(C(=O)N(NC(=O)c2ccc3c(c2C)CCCO3)C(C)(C)C)c1`, the LC retention time was 9.91 min.

As to `CC(C)NCC(O)COc1ccc(CC(=O)O)cc1` (stereo not given), the LC retention time was 3.58 min.

On to `CC1CC(C)C(=O)C(C(O)CC2CC(=O)NC(=O)C2)C1` (stereo not given), for which the LC retention time was 6.32 min.

Take `Nc1ccc(O)c(C(=O)O)c1`: the LC retention time is 2.04 min.

Take `Cc1ccc(C(C)NC(=O)C(NC(=O)OC(C)C)C(C)C)cc1` (stereo not given): the LC retention time was 9.8 min.

With `CNCC(c1ccc(OC)cc1)C1(O)CCCCC1` (stereo not given), the LC retention time is 6.12 min.
